Source: the supplement of paper PMC10307832

Legend:
Assay in all cases: relative viability (nuclei count vs DMSO), 5 days (fraction); higher = more cells survive
IDH-C35 + Lapatinib = compound: Cc1ccccc1C(C(=O)NC1CCCCC1)N(C(=O)Cn1ccnc1C)c1cccc(F)c1 [IDH-C35] + CS(=O)(=O)CCNCc1ccc(-c2ccc3ncnc(Nc4ccc(OCc5cccc(F)c5)c(Cl)c4)c3c2)o1 [Lapatinib] (partner 2 µM)
Procedure, shortened: (§1)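 A single step with final 0.05% Triton X-100, 1% formaldehyde and 1 ug/ml Hoechst fixed the cells and stained nuclei 5 days after treatment. Lung cancer cell lines in 1536-well plates had been treated by pin tool the day after seeding with one drug alone or a fixed anchor-drug dose plus five library-drug doses (not always all listed) in √10 steps, and nuclei were counted on 4× images. Relative viability is the ratio of nuclei in treated wells to nuclei in vehicle wells, taken as the median of duplicate plates.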

[1] = compound: CC1=C(C(=NN1)C)CC2=C(C3=C(S2)N(C(=O)N(C3=O)C)CC(C)C)C(=O)N4C[C@@H](CO4)O + N=C(N)NC(=N)NCCc1ccccc1 [Phenformin] (partner 250 µM)
Procedure, shortened: as §1

[2] = compound: CC1=C(C(=NN1)C)CC2=C(C3=C(S2)N(C(=O)N(C3=O)C)CC(C)C)C(=O)N4C[C@@H](CO4)O + O=C(CCCCCCC(=O)Nc1ccccc1)NO [Vorinostat] (partner 1 µM)
Procedure, shortened: as §1

IDH-C35 + Vorinostat = compound: Cc1ccccc1C(C(=O)NC1CCCCC1)N(C(=O)Cn1ccnc1C)c1cccc(F)c1 [IDH-C35] + O=C(CCCCCCC(=O)Nc1ccccc1)NO [Vorinostat] (partner 1 µM)
Procedure, shortened: as §1

Cell Line	relative viability (IDH-C35 + Lapatinib; first compound 0.08 µM)	relative viability (IDH-C35 + Lapatinib; first compound 0.253 µM)	relative viability (IDH-C35 + Lapatinib; first compound 0.8 µM)	relative viability (IDH-C35 + Lapatinib; first compound 2.53 µM)	relative viability (IDH-C35 + Lapatinib; first compound 8 µM)	relative viability ([1]; first compound 0.0025 µM)	relative viability ([1]; first compound 0.007906 µM)	relative viability ([1]; first compound 0.025 µM)	relative viability ([1]; first compound 0.07906 µM)	relative viability ([1]; first compound 0.25 µM)	relative viability ([2]; first compound 0.0025 µM)	relative viability ([2]; first compound 0.007906 µM)	relative viability ([2]; first compound 0.025 µM)	relative viability ([2]; first compound 0.07906 µM)	relative viability ([2]; first compound 0.25 µM)	relative viability (IDH-C35 + Vorinostat; first compound 0.08 µM)	relative viability (IDH-C35 + Vorinostat; first compound 0.253 µM)	relative viability (IDH-C35 + Vorinostat; first compound 0.8 µM)	relative viability (IDH-C35 + Vorinostat; first compound 2.53 µM)	relative viability (IDH-C35 + Vorinostat; first compound 8 µM)
NCI-H838	1.21	1.07	0.882	1.02	1.02	0.567	0.594	0.433	0.453	0.489	0.696	0.75	0.691	0.777	0.704	0.706	0.675	0.718	0.763	0.72
NCI-H1755	1.08	1.03	0.992	1.03	1.02	0.637	0.607	0.589	0.583	0.622	0.792	0.781	0.724	0.632	0.719	0.738	0.8	0.82	0.809	0.725
HCC-78	1.02	0.732	0.841	0.606	0.355	0.795	0.842	0.574	0.671	0.575	0.521	0.552	0.497	0.518	0.439	0.447	0.484	0.457	0.381	0.531
IA-LM	0.721	1.03	0.721	0.809	0.535						0.91	1.19		0.942	1.08	1	0.878	0.881		1.05
NCI-H322M	0.541	0.59	0.625	0.529	0.608	0.825	0.673	0.793	0.93	0.829	0.876	0.821	0.857	0.953	0.801	0.875	0.866	0.798	0.911	0.922
NCI-H3122	1.06	0.951	1.04	1	1.03	0.385	0.365	0.364	0.392	0.375	1.03	1.12	1.1	0.731	0.918	1.01	0.947	0.793	0.773	1.08
COR-L23	1.05	1.09	0.932	1	0.938	0.397	0.395	0.342	0.355	0.344	0.499	0.378	0.37	0.422	0.484	0.503	0.421	0.404	0.408	0.409
NCI-H2087	1.04	1.06	0.867	1.07	0.834	0.45	0.474	0.395	0.471	0.447	0.841	0.581	0.578	0.462	0.875	0.821	0.715	0.74	0.624	0.633
LC-2-ad	0.998	0.978	0.924	0.904	0.973	0.604	0.59	0.528	0.573	0.648	0.696	0.658	0.718	0.705	0.729	0.694	0.701	0.67	0.632	0.677
NCI-H1915	0.962	0.996	0.974	0.934	0.976	0.365	0.329	0.358	0.345	0.357	0.573	0.541	0.488	0.51	0.588	0.499	0.52	0.488	0.451	0.574
NCI-H1792	0.806	0.893	0.87	0.98	0.973	0.259	0.173	0.127	0.172	0.155										
ChaGo-K-1						0.467	0.451	0.407	0.447	0.47	0.73	0.811	0.755	0.725	0.787	0.758	0.814	0.8	0.586	0.68
NCI-H522						0.551	0.686	0.376	0.327	0.265	0.963	1.03	0.682	0.551	0.551	0.953	1.12	0.896	0.872	0.883
NCI-H1299	1.02	0.975	0.967	0.936	0.898															
NCI-H1648											0.787	0.413	0.42	0.406	0.441		0.415	0.523	0.443	0.525
NCI-H2342						0.493	0.532	0.398	0.384	0.401	0.611	0.766	0.709	0.656	0.644	0.817	0.712	0.793	0.715	0.806
SW 900						0.735	0.675	0.535	0.779	0.589	0.558	0.55	0.534	0.504	0.445	0.496	0.44		0.505	0.529
A549	0.956	1	0.988	0.947	1.03	0.116	0.0979	0.151	0.161	0.168										
NCI-H1563	1.11	0.955	0.96	0.912	1.09	0.667	0.666	0.729	0.711	0.667										
LCLC-103H						0.329	0.367	0.393	0.341	0.317	0.871	0.896	0.792	0.772	0.689	0.782	0.755	0.87	0.591	0.625
NCI-H441						0.902	0.943	0.799	0.847	0.865	0.959	0.774	0.716	0.696	1.12	0.906	0.74	0.787	0.683	0.887
